The results in this text go back to patent US20070142392A1, “Uses of rifamycins” (ActivBiotics, Inc., priority 2005, published 2007).

Converted amounts (≈) assume the structure as drawn. Where two headings read alike, the source gives them in different places.

In data set [1] the test system is S. aureus ATCC29213. The data set is described as follows: MIC by broth dilution method. The format is cell-based. The following applies: S. aureus ATCC29213, inoculum 5×10^5 CFU/ml. The method, then:
(§1) FIG. 2A is a schematic illustration showing the peak drug concentration of Compound 86 (1.13 μg/ml) in cage fluid from non-infected animals after single dose of 12.5 mg/kg. […] In this medium, bacterial counts remained stable in the absence of antibacterial agents for >36 hours.
(§2) In this medium, bacterial counts remained stable in the absence of antibacterial agents for >36 hours.
(§3) To understand the relative efficacy of peak drug concentration, it is compared to the minimal inhibitory concentration (MIC), the minimal bactericidal concentration for logarithmic phase growth (MBClog) and the MBCstat. […] The MBClog was defined as antimicrobial concentration that reduced the original inoculum by […] after 24 hour incubation (i.e. 3 log 10 CFU/ml), as described in the Manual of Clinical Microbiology. The MBCstat was determined as described in Example 1.

Data set [2] has as its system S. aureus ATCC29213. The data set is described as follows: minimal bactericidal concentration for logarithmic phase growth (MBClog). Type of data set: cell-based. The method, then: as §1, §2, §3
Data set [3] relates to S. aureus. The data set is described as follows: minimal bactericidal concentration in the stationary growth phase (MBCstat). The format is cell-based. The following applies: Staphylococcus aureus, 1% glucose PBS pH 7.4 with 4% Muller Hinton Broth. On the procedure: as §1, §2
The minimal bactericidal concentration in the stationary growth phase (MBCstat) was determined by using overnight bacterial cultures which were centrifuged and resuspended in medium containing 1% glucose supplemented phosphate buffered saline (PBS) pH 7.4 with 4% Muller Hinton Broth (Zimmerli et al., J Antimicrob. Chemother. 33:959-967 (1994)). In this medium, bacterial counts remained stable in the absence of antibacterial agents for >36 hours.

Data set [4] has as its system S. aureus. In words: Foreign-body (tissue cage) infection model, antimicrobial treatment. Type of data set: in vivo, guinea pigs. The following applies: for Mean log10 CFU/ml ± SD in aspirated cage fluid, during treatment / no. culture negative/total no., cage fluid during treatment: day 4; for Mean log10 CFU/ml ± SD in aspirated cage fluid, after treatment / no. culture negative/total no., cage fluid after treatment: day 9; for Cure rate of removed cages: cages removed day 9.
Procedure: For pharmacokinetic studies, non-infected animals were used. […] Antibiotics were administered intraperitoneally every 12 hours for four days (total eight doses). […] The cure rate is the fraction of cages in which the infection was eradicated. […] Following incubation, 50 μl of the TSB mixture was plated on blood agar plates to determine the presence of bacteria. A foreign-body infection model in guinea pigs was used for in vivo analysis of antimicrobials as described in Example 2, however in this example the animals were infected. […] Antibiotics were administered intraperitoneally every 12 hours for four days (total eight doses).

For data set [5] the following is noted: guinea pig, in vivo, ip.
Source text: (§4) For pharmacokinetic studies, non-infected animals were used. […] Teflon tissue cages were implanted into the flanks of guinea pigs. For pharmacokinetic studies, non-infected animals were used.
The nature of another data set: in vivo. The following applies: albino, guinea pig, ip, 12.5 mg/kg.
Data set [6] relates to S. aureus. The data set is described as follows: MIC values, S. aureus (Tables 1-4). The format is cell-based.
The test system of another data set is S. pneumo. In words: MIC values, S. pneumo. (Tables 1-4). Type of data set: cell-based.
The next data set has as its system E. faecalis. In words: MIC values, E. faecalis (Tables 1-4). The format is cell-based.
For another data set, the system named is H. flu. The format is cell-based.
Another data set concerns E. coli. The data set is described as follows: MIC values, E. coli (Tables 1-4). Type of data set: cell-based.

Source text for in vivo: as §4

For `CO[C@H]1/C=C/O[C@@]2(C)Oc3c(C)c(O)c4c(O)c(c(/C=N/N5CCN(C)CC5)c(O)c4c3C2=O)NC(=O)/C(C)=C\C=C\[C@H](C)[C@H](O)[C@@H](C)[C@@H](O)[C@@H](C)[C@H](OC(C)=O)[C@@H]1C` [Rifampin, rifampin, reference compound], in the data set with S. aureus ATCC29213 [1] (Staphylococcus aureus, read-out: minimal inhibitory concentration (MIC)), the MIC turned out to be 0.016 µg/mL (≈ 0.0194 µM). The MBC in the data set on S. aureus ATCC29213 [2] (Staphylococcus aureus, ATCC29213, 24 hour incubation) came to 0.8 µg/mL (≈ 0.972 µM). This compound also returned an MBC with S. aureus [3] of 3.6 µg/mL (≈ 4.37 µM). Also, in the data set on S. aureus [4] (12.5 mg/kg/12 h i.p.), the “Mean log10 CFU/ml ± SD in aspirated cage fluid, during treatment” value (from here on “Mean log10 CFU/ml ± SD … during treatment”) stood at 3.68 ± 0.59 log10 CFU/ml; the “no. culture negative/total no., cage fluid during treatment” value is on record as 11/24; the “Mean log10 CFU/ml ± SD in aspirated cage fluid, after treatment” value (“Mean log10 CFU/ml ± SD … after treatment” below) turned out to be 1.43 ± 0.28 log10 CFU/ml; the “no. culture negative/total no., cage fluid after treatment” value was 19/24. Further, in data set [5] (12.5 mg/kg), the time to peak (Tmax) result is listed as “two”. Also, in the data set “in vivo”, the AUC was found to be 4560 ng·h/mL, the Cmax is 980 ng/mL, the Tmax was found to be 2 h and the concentration at 12 h worked out at 140 ± 90 ng/mL.

With `CO[C@H]1/C=C/O[C@@]2(C)Oc3c(C)c(O)c4c(=O)c(c5oc6cc(N7CCN(C)CC7)cc(O)c6nc-5c4c3C2=O)NC(=O)/C(C)=C\C=C\[C@H](C)[C@H](O)[C@@H](C)[C@@H](O)[C@@H](C)[C@H](O)[C@@H]1C` [Compound 86], in the data set with S. aureus [6], the “MIC S. aureus” value amounted to 2 ng/mL (≈ 0.00233 µM). In addition, the “MIC S. pneumo.” value with S. pneumo. was 0.12 ng/mL (≈ 0.00014 µM). In addition, in the data set with E. faecalis, the “MIC E. faecalis” value stood at 0.015 µg/mL (≈ 0.0175 µM). The “MIC H. flu” value in the data set on H. flu was 0.25 µg/mL (≈ 0.292 µM). Moreover, the “MIC E. coli” value against E. coli is 4 µg/mL (≈ 4.67 µM). For the same compound, in the data set on S. aureus ATCC29213 [1], the “minimal inhibitory concentration (MIC)” value came to 2 ng/mL (≈ 0.00233 µM). The MBClog with S. aureus ATCC29213 [2] (24 hour incubation) was found to be 0.008 μg/ml. For the same compound, in the data set on S. aureus [4] (3 mg/kg/12 h i.p.), the “Cure rate of removed cages” value was 8% (1/12); the “Mean log10 CFU/ml ± SD … during treatment” value was determined as 4.76 ± 0.51 log10 CFU/ml; the “no. culture negative/total no., cage fluid during treatment” value is listed as 2/12; the “Mean log10 CFU/ml ± SD … after treatment” value is reported as 2.77 ± 0.53 log10 CFU/ml. For the same compound, the “no. culture negative/total no., cage fluid after treatment” value in the data set on S. aureus [4] (3 mg/kg/12 h i.p.) was 4/12. In addition, in the data set with S. aureus [4] (12.5 mg/kg/12 h i.p.), the “Cure rate of removed cages” value was determined as 58%; the “Mean log10 CFU/ml ± SD … during treatment” value is listed as 3.24 ± 0.27 log10 CFU/ml; the “no. culture negative/total no., cage fluid during treatment” value is recorded as 5/12; the “Mean log10 CFU/ml ± SD … after treatment” value was 1.57 ± 0.53 log10 CFU/ml. Further, in the data set on S. aureus [4] (12.5 mg/kg/12 h i.p.), the “no. culture negative/total no., cage fluid after treatment” value is 10/12. For the same compound, the “Cure rate of removed cages” value in the data set with S. aureus [4] (12.5 mg/kg/12 h i.p., listed as Cpd 86) was 58% (7/12). The compound further gave a Cmin in data set [5] (3 mg/kg) of 0.04 ± 0.01 µg/mL. In addition, in data set [5] (12.5 mg/kg), the “Cmax (peak drug concentration)” value came to 1.13 µg/mL, the Cmin stood at 0.14 ± 0.11 µg/mL and the Tmax is recorded as 8 h.

Broadly, the MBC is the smallest concentration meeting the test's criterion for killing. Low readings indicate greater bactericidal potency, high ones weaker bactericidal potency. As usually defined, the Tmax is the time from dosing to the highest level. One may read the AUC as the area under the concentration-time curve, a measure of exposure. High values mean more exposure, low ones less exposure. By Cmax is commonly meant the highest concentration seen after dosing.
